According to US12054497B2, “Substituted heterocyclic fused cyclic compound, preparation method therefor and pharmaceutical use thereof” (GENFLEET THERAPEUTICS (SHANGHAI) INC., priority 2019, dated 2024):
Where two headings read alike, the source gives them in different places.

Columns and labels:
[1] = system: subcutaneous xenograft tumor model of MIA PaCa-2; assay: In vivo pharmacodynamic experiment, tumor growth inhibition (Test Example 5); set-up: species or system BALB/c nude mice; details: p.o., QD; for TGI: day 14
Method: Experimental objective: to evaluate the in vivo pharmaceutical effects of tested compounds on the subcutaneous xenograft tumor model of MIA PaCa-2.
Experimental operation: 6 to 8 weeks old female BALB/c nude mice each having the body weight of 18-20 g were chosen. MIA PaCa-2 cells were cultured in DMEM containing 10% FBS, 2.5% HS and 1% penicillin-streptomycin at 37° C. in an incubator with 5% CO2. Cells were collected. The MIA PaCa-2 cells were subcutaneously inoculated to the animals at their backs on the right, 2.0×10^6 cells (0.1 mL) for each animal. When tumor grew to 190-311 mm^3, mice with tumor having a suitable size were chosen and treated in groups, with administration dosages shown in Table 5 below. The animals were weighed on an electronic balance each day. The tumor volume was investigated by using a vernier caliper twice a week. The tumor volume was calculated by the following equation: V=0.5 a×b^2, a and b representing the long diameter and the short diameter of the tumor, respectively. The tumor volume was used to calculate a tumor growth inhibition rate (TGI), and the TGI shown in the form of a percentage was used to indicate the antineoplastic activity of a compound. The TGI was calculated by the following equation: TGI (%)=[1−avTi−0/avCi−0)]×100, with avTi−0 representing the average tumor volume of the group administrated with the compound on a specific day minus the average tumor volume of this group on the day of grouping, and avCi−0 representing the average tumor volume of the solvent control group on a specific day minus the average tumor volume of the solvent control group on the day of grouping. The tumor volume was shown in the form of an average value±standard error of mean (SEM).

[2] = Pharmacokinetic evaluation on mice, intravenous administration (Test Example 6); assay type: in vivo; details: male CD-1 mice, IV 2 mg/kg
Method: (§1) Experimental objective: male CD-1 mice were chosen as tested animals, and the LC-MS-MS method was employed to measure the concentrations of a tested compound in blood plasma of a mouse intravenously and intragastrically administrated with the tested compound at different times. The pharmacokinetic behaviors of tested compounds in mice were studied, and the pharmacokinetic characteristics thereof were evaluated.
(§2) Experimental scheme: experimental animals: 18 healthy adult male CD-1 mice (6 to 8 weeks old, and body weight about 30 g) were divided into 6 groups according to the principle of similar body weights: 3 mice in each of IV groups (3 groups), and 3 mice in each of PO groups (3 groups). The animals were purchased from Shanghai Jihui Laboratory Animal Care Co., Ltd.
(§3) Formulation: IV group: taking 10 mL of sample solution for example, 4 mg of sample was weighed, orderly added with 0.5 mL of DMSO and […], then added with […] of HP-p-CD, finally added with water to a constant volume of 10 mL, and stirred and subjected to ultrasonic irradiation, thereby obtaining a 0.4 mg/mL clear solution. PO group: an appropriate amount of sample was weighed, orderly added with appropriate amounts of Labrasol and water in a volume ratio of 10:40, and stirred and subjected to ultrasonic irradiation, thereby obtaining a 1.5 mg/mL uniform solution.
(§4) Administration: after being deprived of food for one night, the IV groups were intravenously administrated with the formulated solutions, respectively, with an injection volume of 5 mL/kg and a dosage of 2 mg/kg. The PO groups were intragastrically administrated with the formulated solutions, respectively, with an injection volume of […] and a dosage of 15 mg/kg.
(§5) Experimental operations: after the intravenous injection groups and the intragastric administration groups of the male CD-1 mice were administrated with the tested compounds, 110 ul of blood was sampled at the following time points: 0.0833, 0.25, 0.5, 1, 2, 4, 6, 8, and 24 hours. The sampled blood was placed into an anticoagulant tube which was added with K2EDTA in advance and preserved in dry ice. The tube was centrifuged for 15 minutes to separate blood plasma, and the separated blood plasma was preserved at −70° C. The animals were allowed to be fed after 4 hours of administration. The LC-MS-MS method was employed to measure the concentration of the tested compounds in the blood plasma after the intravenous and intragastric administration to the mice. The linear range of the method was 1-3000 ng/ml. The blood plasma samples were analyzed after protein precipitation with ACN.

[3] = Pharmacokinetic evaluation on mice, intragastric (PO) administration (Test Example 6); assay type: in vivo; details: PO 15 mg/kg, male CD-1 mice
Method: as §1, §2, §3, §4, §5

[4] = system: A549 cells with Kras G12S mutation; assay: Cell proliferation inhibition experiment, 3D spheroid, CellTiter-Glo (Test Example 1); assay type: cell-based, human; details: Homo sapiens, A549, 120 h, 5 days
In short: (§6)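 NCI-H358 (800 cells/well) and A549 (400 cells/well) grown overnight as 3D spheroids in 2% FBS medium, then exposed to compound dilution series (3.16-fold, 0.1% DMSO) for 5 days. CellTiter-Glo luminescence read; inhibition relative to DMSO and blank, IC50 by four-parameter fit.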

[5] = system: NCI-H358 cells with Kras G12C mutation; assay: as above; assay type: cell-based, human; details: 5 days
In short: as §6

[6] = system: phosphorylated ERK in MIA PaCa2 cells with Kras G12C mutation; assay: p-ERK HTRF assay for cells (Test Example 2); assay type: cell-based, human; details: MIA PaCa2 cells, 2 hours with compound, read-out: p-ERK IC50
In short: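 MIA PaCa2 cells (2.5E4/well, seeded overnight) treated 2 h with compound in a 3.16-fold series at 0.1% DMSO. Cells lysed 30 min; p-ERK read by HTRF after 4 h antibody incubation. Inhibition relative to DMSO and blank; IC50 by four-parameter fit.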

[7] = system: MIA PaCa-2 cells with Kras G12C mutation; assay: Cell proliferation inhibition experiment, 3D spheroid, CellTiter-Glo (Test Example 3); assay type: cell-based, human; details: Homo sapiens, MIA PaCa-2, 120 h, 5 days, read-out: MIA-PaCa2 IC50
In short: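 MIA PaCa-2 spheroids (200 cells/well) were formed overnight, then exposed for 5 days to compounds in 3.16-fold dilutions at 0.1% DMSO. Viability was read by CellTiter-Glo luminescence, and inhibition was normalised to DMSO control and medium blank. IC50 came from a four-parameter fit.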

KRas G12C = KRas G12C (Homo sapiens (Human), UniProt P01116, G12C); assay: Nucleotide exchange assay (NEA)-HTRF, SOS1 catalyzed displacement of GDP by GTP (Test Example 4); assay type: biochemical
Chain of KRas G12C (P01116-2 other isoform, or with tags, fused parts or gaps G12C): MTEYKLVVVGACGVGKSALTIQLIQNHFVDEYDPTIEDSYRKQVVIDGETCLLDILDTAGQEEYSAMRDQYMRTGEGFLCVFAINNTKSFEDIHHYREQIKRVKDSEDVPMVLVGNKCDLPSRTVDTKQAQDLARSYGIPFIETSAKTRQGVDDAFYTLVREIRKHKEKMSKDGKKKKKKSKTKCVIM
Method: The effects of compounds on SOS1 catalyzed displacement of GDP by GTP on KRas proteins was examined by homogeneous time-resolved fluorescence (HTRF). 30 μM 6×his labeled KRas G12C recombinant protein and 80 μM fluorochrome DY647 labeled GDP were co-incubated in a labeling buffer (1 mM DTT, 7.5 mM EDTA, 25 mM Tris-HCl, 45 mM NaCl) at 20° C. away from light for 2 hours. Protein quantification was performed after purification on the NAP-5 column to determine the concentration of KRas G12C-GDP.
1000× stock solutions of compounds at a concentration gradient of 3.16 were prepared by using DMSO, and diluted 250 times by a reaction buffer (40 mM N-2-hydroxyethylpiperazine-N-2-ethane sulfonic acid (HEPES), 10 mM MgCl2, 1 mM DTT, 0.002% Triton X-100) into 4× stock solutions of compounds. KRas G12C-GDP/Tb working solution (40 nM KRas G12C-GDP, 1×anti-his Tb) and SOS1/GTP working solution (0.2 μM SOS1, 200 μM GTP) were prepared by using the reaction buffer.
5 μl of 4×stock solution of a compound and 10 μl of KRas G12C-GDP/T working solution were added to each well of 96-well plate with white unclear bottom, and 5 μl of reaction buffer was added to the well of control group in stead of the 4×stock solution of a compound. After incubation at 20° C. away from light for 15 minutes, 5 μl of SOS1/GTP working solution was added and incubated at 20° C. away from light for 2 hours, and then a value of fluorescence intensity was read (excitation wavelength: 320 nm, and emission wavelengths: 615 nm and 665 nm). Besides, group TO was established with 10 μl of the reaction buffer and 10 μl of the KRas G12C-GDP/Tb working solution, and the value of fluorescence intensity was directly read. A relative light unit (RLU) was calculated by the following equation: RLU=(665 nm signal/615 nm signal)×10^4; and the inhibition rate (IR) of the compound was calculated by the following equation: IR (%)=(RLUcompound−RLUcontrol)/(RLUT0−RLUcontrol)×100%. The value of IC50 was calculated by fitting a gradiently diluted concentration of the compound and the corresponding cell proliferation inhibition rate using a four-parameter method.

| SMILES | IC50 [4] [µM] | IC50 [5] [nM] | IC50 ([6]; Homo sapiens, MIA PaCa-2, 2 h) [nM] | IC50 [7] [nM] | IC50 (KRas G12C) [nM] | IC50 ([5]; Homo sapiens, NCI-H358, 120 h) [nM] | also measured |
| --- | --- | --- | --- | --- | --- | --- | --- |
| C=CC(=O)N1CCN(c2nc(=O)n(-c3c(C)ccnc3C(C)C)c3nc(-c4c(O)cccc4F)c(F)cc23)[C@@H](C)C1 [AMG 510, reference compound] | – | – | – | – | – | – | Tumor Volume on Day 14 after Administration ([1]; 1 mg/kg): 314.28 mm^3; TGI ([1]; 1 mg/kg): 82.8%; Tumor Volume on Day 14 after Administration ([1]; 3 mg/kg): 205.35 mm^3; TGI ([1]; 3 mg/kg): 109.1%; Tumor Volume on Day 14 after Administration ([1]; 10 mg/kg): 81.72 mm^3; TGI ([1]; 10 mg/kg): 138.9%; Cl (clearance rate) [2]: 4.39 L/h/kg; T1/2 (half-life) [2]: 19.1 min; Vd (volume of distribution) [2]: 1.15 L/kg; F (bioavailability) [3]: 36.10%; Cmax ([3]; plasma): 1221 ng/mL; Tmax ([3]; plasma): 1.00 h |
| C=CC(=O)N1CCN2c3c(c(=O)n(-c4c(C)ccnc4C(C)C)c4nc(-c5c(O)cccc5F)c(F)cc34)N(CC)C(=O)[C@H]2C1 [Compound Z30, (4aR)-3-acryloyl-6-ethyl-11-fluoro-10-(2-fluoro-6-hydroxyphenyl)-8-(2-isopropyl-4-methylpyridin-3-yl)-2,3,4,4a,6,8-hexahydro-1H-pyrazino[1′,2′:4,5]pyrazino[2,3-c][1,8]naphthyridin-5,7-dione] | > 30 | 51 | 676 | 140 | 656 | – | – |
| C=CC(=O)N1C[C@@H]2C(=O)N(C)c3c(c4cc(C5CC5)c(-c5c(O)cccc5F)nc4n(-c4c(C)ccnc4C(C)C)c3=O)N2C[C@H]1C [Compound Z31, (2R,4aR)-3-acryloyl-11-cyclopropyl-10-(2-fluoro-6-hydroxyphenyl)-8-(2-isopropyl-4-methylpyridin-3-yl)-2,6-dimethyl-2,3,4,4a,6,8-hexahydro-1H-pyrazino[1′,2′:4,5]pyrazino[2,3-c][1,8]naphthyridin-5,7-dione] | 9.49 | – | 206 | 59 | 151 | 17 | – |
| C=CC(=O)N1C[C@@H]2C(=O)Nc3c(c4cc(F)c(-c5c(O)cccc5F)nc4n(-c4c(C)ccnc4C(C)C)c3=O)N2C[C@H]1C [Compound Z35, (2R,4aR)-3-acryloyl-11-fluoro-10-(2-fluoro-6-hydroxyphenyl)-8-(2-isopropyl-4-methylpyridin-3-yl)-2-methyl-2,3,4,4a,6,8-hexahydro-1H-pyrazino[1′, 2′:4]pyrazino[2,3,3-c][1,8,8]naphthyridin-5-dione] | 28.2 | 6 | – | 15 | 73 | – | IC50 [6]: 83 nM |
| C=CC(=O)N1CCN2c3c(c(=O)n(-c4c(C(C)C)ccnc4C(C)C)c4c(F)c(-c5c(O)cccc5F)c(Cl)cc34)N(C)C(=O)[C@H]2C1 [Compound Z37] | 8.57 | – | 21 | 4 | 20 | 1 | – |
| C=CC(=O)N1C[C@@H]2C(=O)N(C)c3c(c4cc(Cl)c(-c5c(O)cccc5F)c(F)c4n(-c4c(C(C)C)ncnc4C(C)C)c3=O)N2C[C@H]1C [Compound Z50] | 28.3 | – | 7 | 2 | 19 | 0.5 | – |
